Test results: patent US20240059704A1, “Cereblon Ligands and Uses Thereof” (REGENTS OF THE UNIVERSITY OF MICHIGAN, priority 2022, published 2024)
Where a name gives a salt, the structure may show the parent alone.

Tests used:
[1] = target: CRBN/DDB1 (Homo sapiens (Human), UniProt Q96SW2); details: HTRF, His tagged CRBN+DDB-DLS7+CXU4, Cy5-labeled Thalidomide probe; read-out: CRBN Binding IC50
Description: The binding potency was determined using HTRF assay technology (Perkin Elmer). Compounds were serially diluted in DMSO and 0.2 μL volume was transferred to white 384-well plate.

[2] = target: wild-type human CRBN protein (Homo sapiens (Human), UniProt Q96SW2); assay: Cereblon Binding Assay (Cisbio Cereblon Binding Kit, TR-FRET); details: GST-tagged wild-type human CRBN, XL665-labelled Thalidomide
Chain of wild-type human CRBN protein (Q96SW2 whole entry): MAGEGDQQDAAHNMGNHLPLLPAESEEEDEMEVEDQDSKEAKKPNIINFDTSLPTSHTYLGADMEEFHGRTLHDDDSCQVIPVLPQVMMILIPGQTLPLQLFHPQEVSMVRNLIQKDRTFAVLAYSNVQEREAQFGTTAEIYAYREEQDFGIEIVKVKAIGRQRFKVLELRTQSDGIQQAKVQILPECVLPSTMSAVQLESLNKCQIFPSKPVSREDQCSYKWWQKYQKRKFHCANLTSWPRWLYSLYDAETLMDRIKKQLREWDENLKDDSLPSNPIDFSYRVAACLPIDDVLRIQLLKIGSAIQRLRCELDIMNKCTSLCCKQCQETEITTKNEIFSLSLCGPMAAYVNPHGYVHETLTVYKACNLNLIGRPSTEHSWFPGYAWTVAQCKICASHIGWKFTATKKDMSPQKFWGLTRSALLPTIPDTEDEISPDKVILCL
Description: The binding to cereblon (CRBN) was determined using the Cereblon Binding Kit (Cisbio, #64BDCRBNPEG) following the manufacturer's instruction. Briefly, serially diluted compounds were incubated with GST-tagged wild-type human CRBN protein, XL665-labelled Thalidomide and Europium Cryptate labelled GST antibody at room temperature for about 3 hours. Time Resolved Fluorescence Resonance Energy Transfer (TR-FRET) measurements were acquired on a CALRIOstar plate reader with MARS data analysis software (BMG Labtech), with the following settings: 665/10 nm and 620/10 nm emission, 60 […]. The TR-FRET ratio was taken as the 665/620 nm intensity ratio.

[3] = target: ER (Homo sapiens (Human), UniProt P03372); assay: In-cell western blot analysis (ICW), relative ER percentage in treated cells; assay type: cell-based; details: ER degradation, 16 hours
Chain of ER (P03372 whole entry): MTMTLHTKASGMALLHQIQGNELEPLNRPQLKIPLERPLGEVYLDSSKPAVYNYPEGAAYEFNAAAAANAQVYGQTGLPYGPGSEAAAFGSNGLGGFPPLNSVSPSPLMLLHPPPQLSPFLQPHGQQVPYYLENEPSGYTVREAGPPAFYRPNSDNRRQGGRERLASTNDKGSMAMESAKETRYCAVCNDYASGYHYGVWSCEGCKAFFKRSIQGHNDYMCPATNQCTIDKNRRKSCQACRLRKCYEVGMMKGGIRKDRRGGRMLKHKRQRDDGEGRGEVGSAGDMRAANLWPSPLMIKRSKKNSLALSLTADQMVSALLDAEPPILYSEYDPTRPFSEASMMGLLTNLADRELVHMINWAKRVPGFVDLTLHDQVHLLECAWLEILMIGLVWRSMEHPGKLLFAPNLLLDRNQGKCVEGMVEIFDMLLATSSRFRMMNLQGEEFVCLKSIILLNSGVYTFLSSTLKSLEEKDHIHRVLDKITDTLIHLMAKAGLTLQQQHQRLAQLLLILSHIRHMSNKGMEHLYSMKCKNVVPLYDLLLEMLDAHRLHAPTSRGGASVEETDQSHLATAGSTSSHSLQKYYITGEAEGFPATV
Description: In-cell western blot analysis. Cells are seeded in multi-well plates (e.g., at 40,000 or 10,000 cells/well). Diluted compounds at certain concentration are added (final 0.5% DMSO) and cells are incubated for certain period of time (e.g., 16 hours). Formaldehyde (e.g., PBS:FA=9:1) is added and followed by washing with PBS. The cells are blocked with Licor blocking buffer (Li-Cor). The relative ER percentage in treated cells were obtained by comparing the values of treated wells to those in untreated and DMSO-treated wells as 100%.
In-cell western blot analysis. a. seed cells in black-sided/clear bottom 96- or 384-well plates at 40,000 or 10,000 cells/well, overnight; b. add diluted compounds (final 0.5% DMSO), 16 hours. 16 h later, remove medium, add 100 μL or 25 μL of 3.7-4.0% formaldehyde (PBS:FA=9:1), RT 20 min, no shaking; c. wash with PBS, and permeabilized with 100 μL or 25 μL/well of 1×PBS+0.1% Triton X-100 10 minutes; d. block with 100 μL or 25 μL Licor blocking buffer (Li-Cor), RT 1h, moderate shaking; d. Add 100 μL or 25 μL of anti-ER (cs-8644, 1:500-1,000)+GAPDH (Millipore MAB374, 1:1000) in Block+0.05% Tween 20. RT 2h, gentle shaking. Negative control: cells plus secondary antibodies (no primary antibodies); e. wash×4 with PBS+0.05-0.1% Tween 20, gentel shaking; f. anti-rabbit-680 and anti-mouse-800 (both 1:1000 in LiCor block+0.05% Tween20, RT 1h, gentle shaking, no light. LI-COR: 0.2% to reduce background; g. wash×4 with PBS+0.05% Tween 20, gental shaking; h. add 100 μL or 25 μL of PBS to each well and read on CLX plate reader. The relative ER percentage in treated cells were obtained by comparing the values of treated wells to those in untreated and DMSO-treated wells as 100%.

[4] = test system: T47D cell line; assay: Cell growth inhibition in T47D cell line; assay type: cell-based; details: Homo sapiens, μM, class key in nM
Description: Cell Growth Assay. The cells were seeded at certain concentration (e.g., at 1500/well) in multi-well plates overnight. Cells are subsequently treated with the compounds. A certain period of time (e.g., 4 days) after the compound treatment, 10% WST-8 reagent was added to the culture medium and incubate under certain condition (e.g., in a CO2 incubator at 37° C. for 2.5 hours). The absorbance is measured on each sample using a microplate reader at certain wavelength (e.g., 450 nm). The relative absorbance is calculated against the vehicle control from three individually repeats.

Chain of CRBN/DDB1 (Q96SW2 whole entry): as the sequence (Q96SW2 whole entry) above
Chain of CRBN/DDB1 (Q16531 whole entry partner): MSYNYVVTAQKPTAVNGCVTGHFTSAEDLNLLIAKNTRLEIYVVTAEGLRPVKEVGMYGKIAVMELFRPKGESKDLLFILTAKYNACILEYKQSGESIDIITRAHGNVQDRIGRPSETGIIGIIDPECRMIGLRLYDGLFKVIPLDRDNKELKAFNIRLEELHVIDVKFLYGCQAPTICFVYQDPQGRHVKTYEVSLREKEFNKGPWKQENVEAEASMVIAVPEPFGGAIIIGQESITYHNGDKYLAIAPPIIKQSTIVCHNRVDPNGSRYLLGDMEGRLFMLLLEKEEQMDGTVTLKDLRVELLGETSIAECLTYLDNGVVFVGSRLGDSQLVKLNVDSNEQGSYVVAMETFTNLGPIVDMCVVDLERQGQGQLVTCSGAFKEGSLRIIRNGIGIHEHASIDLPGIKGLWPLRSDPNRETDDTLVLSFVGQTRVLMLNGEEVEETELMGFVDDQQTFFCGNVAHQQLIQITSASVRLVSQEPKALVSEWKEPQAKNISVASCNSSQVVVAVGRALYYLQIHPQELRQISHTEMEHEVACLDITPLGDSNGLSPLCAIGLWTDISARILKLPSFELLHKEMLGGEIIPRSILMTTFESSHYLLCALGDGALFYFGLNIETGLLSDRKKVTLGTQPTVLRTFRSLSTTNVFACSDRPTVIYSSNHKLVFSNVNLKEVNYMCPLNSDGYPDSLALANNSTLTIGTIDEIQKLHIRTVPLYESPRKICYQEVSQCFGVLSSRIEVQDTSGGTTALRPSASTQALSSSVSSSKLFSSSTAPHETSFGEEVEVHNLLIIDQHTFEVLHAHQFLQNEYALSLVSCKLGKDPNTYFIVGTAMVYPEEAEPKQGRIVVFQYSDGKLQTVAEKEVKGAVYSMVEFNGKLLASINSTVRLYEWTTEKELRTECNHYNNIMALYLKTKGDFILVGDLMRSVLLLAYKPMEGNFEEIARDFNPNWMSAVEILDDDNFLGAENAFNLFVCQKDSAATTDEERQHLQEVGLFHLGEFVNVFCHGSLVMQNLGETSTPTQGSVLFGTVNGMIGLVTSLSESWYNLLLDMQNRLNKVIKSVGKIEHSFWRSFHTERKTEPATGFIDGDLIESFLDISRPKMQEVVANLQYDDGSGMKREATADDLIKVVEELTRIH

| Compound | IC50 [2] | DC50 [3] | IC50 [4] | IC50 [1] |
| --- | --- | --- | --- | --- |
| O=C1CCC(N2Cc3c(ccc4c3OC3(C=C4)CCNCC3)C2=O)C(=O)N1 (stereo not drawn) [Compound A1, 3-(7′-oxo-7′,9′-dihydro-8′H-spiro[piperidine-4,2′-pyrano[2,3-e]isoindol]-8′-yl)piperidine-2,6-dione] | – | – | – | 1100 nM |
| O=C1CCC(N2Cc3c(ccc4c3OC3(CCNCC3)CC4)C2=O)C(=O)N1 (stereo not drawn) [Compound A2, 3-(7′-oxo-3′,4′,7′,9′-tetrahydro-8′H-spiro[piperidine-4,2′-pyrano[2,3-e]isoindol]-8′-yl)piperidine-2,6-dione] | – | – | – | 620 nM |
| O=C1CCC(N2Cc3c(ccc4c3OC3(C=C4)CNC3)C2=O)C(=O)N1 (stereo not drawn) [Compound A3, 3-(7′-oxo-7′,9′-dihydro-8′H-spiro[azetidine-3,2′-pyrano[2,3-e]isoindol]-8′-yl)piperidine-2,6-dione hydrochloride] | – | – | – | 1300 nM |
| O=C1CCC(N2Cc3c(ccc4c3OC3(CC4)CNC3)C2=O)C(=O)N1 (stereo not drawn) [Compound A4, 3-(7′-oxo-3′,4′,7′,9′-tetrahydro-8′H-spiro[azetidine-3,2′-pyrano[2,3-e]isoindol]-8′-yl)piperidine-2,6-dione hydrochloride] | – | – | – | 5200 nM |
| O=C1CCC(N2Cc3c(ccc4c3OCC3(CN(CC5CCN(c6ccc([C@@H]7c8ccc(O)cc8CC[C@@H]7c7ccccc7)cc6)CC5)C3)O4)C2=O)C(=O)N1 (stereo partly drawn) [THP-B367] | – | > 100 nM | 0.001 to 0.01 µM | – |
| O=C1CCC(N2Cc3c(ccc4c3OCC3(CN(CC5CC6(CCN(c7ccc([C@@H]8c9ccc(O)cc9CC[C@@H]8c8ccccc8)cc7)CC6)C5)C3)O4)C2=O)C(=O)N1 (stereo partly drawn) [THP-B368] | – | > 100 nM | 0.001 to 0.01 µM | – |
| O=C1CC[C@H](N2Cc3c(ccc4c3OCC3(CCN(CC5CCN(c6ccc([C@@H]7c8ccc(O)cc8CC[C@@H]7c7ccccc7)cc6)CC5)CC3)O4)C2=O)C(=O)N1 [THP-B369] | – | 10 to 100 nM | < 0.001 µM | – |
| O=C1CC[C@H](N2Cc3c(ccc4c3OCC3(CCN(CC5CC6(CCN(c7ccc([C@@H]8c9ccc(O)cc9CC[C@@H]8c8ccccc8)cc7)CC6)C5)CC3)O4)C2=O)C(=O)N1 [THP-B371] | – | < 10 nM | < 0.001 µM | – |
| O=C1CC[C@H](N2Cc3c(ccc4c3OCC3(CCN(CC5CCC6(CCN(c7ccc([C@@H]8c9ccc(O)cc9CC[C@@H]8c8ccccc8)cc7)CC6)O5)CC3)O4)C2=O)C(=O)N1 (stereo partly drawn) [THP-B372] | – | 10 to 100 nM | 0.001 to 0.01 µM | – |
| O=C1CC[C@H](N2Cc3c(ccc4c3OCC3(CCN(CC5COC6(CCN(c7ccc([C@@H]8c9ccc(O)cc9CC[C@@H]8c8ccccc8)cc7)CC6)C5)CC3)O4)C2=O)C(=O)N1 (stereo partly drawn) [THP-B373] | – | < 10 nM | < 0.001 µM | – |
| O=C1CC[C@H](N2Cc3c(ccc4c3OCC3(CCN(CC5COC6(CCN(c7ccc([C@@H]8c9ccc(O)cc9CC[C@@H]8c8ccccc8)cc7)CC6)OC5)CC3)O4)C2=O)C(=O)N1 [THP-B374] | – | < 10 nM | < 0.001 µM | – |
| O=C1CCC(N2Cc3c(ccc4c3OCC3(CN(CC5CCC6(CC5)CN(c5ccc([C@@H]7c8ccc(O)cc8CC[C@@H]7c7ccccc7)cc5)C6)C3)O4)C2=O)C(=O)N1 (stereo partly drawn) [THP-B376] | – | 10 to 100 nM | < 0.001 µM | – |
| O=C1CCC(N2Cc3c(ccc4c3OCC3(CN(CC5COC6(CCN(c7ccc([C@@H]8c9ccc(O)cc9CC[C@@H]8c8ccccc8)cc7)CC6)OC5)C3)O4)C2=O)C(=O)N1 (stereo partly drawn) [THP-B377] | – | 10 to 100 nM | < 0.001 µM | – |
| O=C1CC[C@H](N2Cc3cc4c(c(F)c3C2=O)OCC2(CCN(CC3CCN(c5ccc([C@@H]6c7ccc(O)cc7CC[C@@H]6c6ccccc6)cc5)CC3)CC2)O4)C(=O)N1 [THP-B383, (S)-3-(5′-fluoro-1-((1-(4-((1R,2S)-6-hydroxy-2-phenyl-1,2,3,4-tetrahydronaphthalen-1-yl)phenyl)piperidin-4-yl)methyl)-6′-oxo-6′,8′-dihydro-3′H,7′H-spiro[piperidine-4,2′-[1,4]dioxino[2,3-f]isoindol]-7′-yl)piperidine-2,6-dione] | – | > 100 nM | > 0.01 µM | – |
| O=C1CC[C@H](N2Cc3cc4c(c(F)c3C2=O)OCC2(CCN(CC3CC5(CCN(c6ccc([C@@H]7c8ccc(O)cc8CC[C@@H]7c7ccccc7)cc6)CC5)C3)CC2)O4)C(=O)N1 [THP-B384] | – | > 100 nM | 0.001 to 0.01 µM | – |
| O=C1CCC(N2C(=O)c3cc4c(cc3C2=O)OC2(CO4)CN(CC3CC4(CCN(c5ccc([C@@H]6c7ccc(O)cc7CC[C@@H]6c6ccccc6)cc5)CC4)C3)C2)C(=O)N1 (stereo partly drawn) [THP-B385] | – | > 100 nM | 0.001 to 0.01 µM | – |
| O=C1CCC(N2Cc3c(ccc4c3OCC3(CN(CC5CCC6(CCN(c7ccc([C@@H]8c9ccc(O)cc9CC[C@@H]8c8ccccc8)cc7)CC6)OC5)C3)O4)C2=O)C(=O)N1 (stereo partly drawn) [THP-B386] | – | > 100 nM | 0.001 to 0.01 µM | – |
| O=C1CC[C@H](N2Cc3cc4c(cc3C2=O)OCC2(CN(CC3CC5(CCN(c6ccc([C@@H]7c8ccc(O)cc8CC[C@@H]7c7ccccc7)cc6)CC5)C3)C2)O4)C(=O)N1 [THP-B394, (S)-3-(1-((7-(4-((1R,2S)-6-hydroxy-2-phenyl-1,2,3,4-tetrahydronaphthalen-1-yl)phenyl)-7-azaspiro[3.5]nonan-2-yl)methyl)-6′-oxo-6′,8′-dihydro-3′H,7′H-spiro[azetidine-3,2′-[1,4]dioxino[2,3-f]isoindol]-7′-yl)piperidine-2,6-dione] | – | – | 0.001 to 0.01 µM | – |

More lines, main results first:

| IC50 [2] | DC50 [3] | IC50 [4] | Compound | IC50 [1] |
| --- | --- | --- | --- | --- |
| 330 nM | – | – | O=C1CC[C@H](N2Cc3c(ccc4c3OCC3(CCNCC3)O4)C2=O)C(=O)N1 [Compound B1, (S)-3-(7′-oxo-7′,9′-dihydro-2′H,8′H-spiro[piperidine-4,3′-[1,4]dioxino[2,3-e]isoindol]-8′-yl)piperidine-2,6-dione] | – |
| 259 nM | – | – | O=C1CCC(N2Cc3c(ccc4c3OCC3(CNC3)O4)C2=O)C(=O)N1 (stereo not drawn) [Compound B2, 3-(7′-oxo-7′,9′-dihydro-2′H,8′H-spiro[azetidine-3,3′-[1,4]dioxino[2,3-e]isoindol]-8′-yl)piperidine-2,6-dione] | – |
| 1730 nM | – | – | O=C1CC[C@H](N2Cc3cc4c(c(F)c3C2=O)OCC2(CCNCC2)O4)C(=O)N1 [Compound B3, (S)-3-(5′-fluoro-6′-oxo-6′,8′-dihydro-3′H,7′H-spiro[piperidine-4,2′-[1,4]dioxino[2,3-f]isoindol]-7′-yl)piperidine-2,6-dione] | – |
| 4330 nM | – | – | O=C1CC[C@H](N2Cc3cc4c(cc3C2=O)OCC2(CNC2)O4)C(=O)N1 [Compound B4, (S)-3-(6′-oxo-6′,8′-dihydro-3′H,7′H-spiro[azetidine-3,2′-[1,4]dioxino[2,3-f]isoindol]-7′-yl)piperidine-2,6-dione] | – |
| 4630 nM | – | – | O=C1CCC(N2C(=O)c3cc4c(cc3C2=O)OC2(CNC2)CO4)C(=O)N1 (stereo not drawn) [Compound B5, 7′-(2,6-dioxopiperidin-3-yl)-7′-hydro-3′H,6′H-spiro[azetidine-3,2′-[1,4]dioxino[2,3-f]isoindole]-6′,8′-dione] | – |
